“And” between values parts separate entries of the source, which are not always exact repeats. Equal entries are not always repeated. Where two headings read alike, the source gives them in different places.
Columns and labels:
CDK12–cyclin K = CDK12–cyclin K (Homo sapiens, UniProt Q9NYV4); assay: Lanthascreen kinase binding assay, CDK12; settings: for Lanthascreen raw signal, sheet CDK12: series r1, duplicates
Protocol: (§1) Lanthascreen experiments were performed using commercially available reagents (Thermo Fisher) and according to the manufacturer’s instructions.

CDK9–cyclin T = target: T1, CDK9–cyclin T (Homo sapiens, UniProt P50750); assay: Lanthascreen kinase binding assay, CDK9; settings: for Lanthascreen TR-FRET signal (raw ratio), sheet CDK9: first titration set (r1), duplicates
T1 construct: purchased Thermo Fisher
T1 sequence (P50750 whole entry): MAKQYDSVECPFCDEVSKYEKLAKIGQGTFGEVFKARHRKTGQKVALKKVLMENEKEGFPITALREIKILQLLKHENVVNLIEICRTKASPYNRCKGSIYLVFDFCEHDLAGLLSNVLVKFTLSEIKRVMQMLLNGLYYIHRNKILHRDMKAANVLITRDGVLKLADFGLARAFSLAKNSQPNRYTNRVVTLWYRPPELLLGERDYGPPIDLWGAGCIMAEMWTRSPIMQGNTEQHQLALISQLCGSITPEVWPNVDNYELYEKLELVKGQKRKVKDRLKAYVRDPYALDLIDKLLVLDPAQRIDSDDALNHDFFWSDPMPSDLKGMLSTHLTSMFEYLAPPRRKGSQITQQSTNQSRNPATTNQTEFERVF
T1 sequence (O60563 whole entry partner): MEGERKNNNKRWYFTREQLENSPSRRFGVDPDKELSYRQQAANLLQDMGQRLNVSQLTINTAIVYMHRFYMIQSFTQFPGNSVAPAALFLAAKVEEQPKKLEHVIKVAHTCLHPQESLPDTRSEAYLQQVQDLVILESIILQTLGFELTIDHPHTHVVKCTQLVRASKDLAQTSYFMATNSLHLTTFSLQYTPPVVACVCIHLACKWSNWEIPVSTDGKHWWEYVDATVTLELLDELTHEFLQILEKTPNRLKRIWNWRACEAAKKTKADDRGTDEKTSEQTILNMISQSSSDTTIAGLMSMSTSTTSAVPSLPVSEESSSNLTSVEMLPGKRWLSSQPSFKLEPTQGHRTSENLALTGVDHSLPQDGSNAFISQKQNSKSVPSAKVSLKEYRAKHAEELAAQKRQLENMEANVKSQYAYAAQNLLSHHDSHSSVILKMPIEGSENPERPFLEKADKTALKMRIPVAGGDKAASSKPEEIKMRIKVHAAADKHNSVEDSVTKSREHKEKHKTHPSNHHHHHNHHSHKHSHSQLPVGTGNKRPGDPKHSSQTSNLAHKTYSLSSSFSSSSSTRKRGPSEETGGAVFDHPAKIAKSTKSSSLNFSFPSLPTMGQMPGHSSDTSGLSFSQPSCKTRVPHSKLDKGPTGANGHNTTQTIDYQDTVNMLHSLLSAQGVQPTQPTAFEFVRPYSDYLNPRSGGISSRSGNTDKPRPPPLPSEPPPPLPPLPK
Protocol: as §1

[1] = system: cyclin K–eGFP degradation reporter; assay: Cyclin K reporter stability analysis (dual-color cyclin K–eGFP reporter); format: cell-based, human; settings: Supplementary Table 2; HEK293T cycK-eGFP reporter, 5 h; read-out: Cellular assays DC50
How it was run: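 A 5 h treatment of HEK293T–Cas9 cells expressing the degradation reporter preceded flow cytometry; eGFP over mCherry, normalized to DMSO.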

CDK2–cyclin A = target: T2, CDK2–cyclin A (Homo sapiens, UniProt P24941); assay: Lanthascreen kinase binding assay, CDK2; settings: for Lanthascreen signal, sheet CDK2: raw replicates, experiment r1-r11
T2 construct: purchased Thermo Fisher
Protocol: as §1

HEK293T cells = assay: Drug sensitivity assay (CellTiter-Glo viability) with or without MLN4924 pretreatment; format: cell-based, human; settings: Supplementary Table 2
How it was run: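 HEK293T–Cas9, 0.15 × 10^6 ml^−1; pretreat DMSO vs 100 nM MLN4924; drugs dispensed after 2 h; 3 d exposure; CellTiter-Glo; viability vs DMSO control.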

CDK12–cyclin K and DDB1 = target: T3, CDK12–cyclin K and DDB1 (Homo sapiens, UniProt Q16531+Q9NYV4, K965R); assay: TR-FRET ternary complex formation assay (compound titration); format: binding
T3 construct: His6–CDK12 (a.a. 713–1,052); full-length or beta-propeller B domain deletion (ΔBPB: a.a. 396–705 deleted) constructs of His6–DDB1ΔBPB, StrepII–Avi–DDB1, or His6–Spy–DDB1; made in house; host or cells: Trichoplusia ni High Five insect cells (baculovirus)
T3 sequence (Q9NYV4 713-1052 K965R): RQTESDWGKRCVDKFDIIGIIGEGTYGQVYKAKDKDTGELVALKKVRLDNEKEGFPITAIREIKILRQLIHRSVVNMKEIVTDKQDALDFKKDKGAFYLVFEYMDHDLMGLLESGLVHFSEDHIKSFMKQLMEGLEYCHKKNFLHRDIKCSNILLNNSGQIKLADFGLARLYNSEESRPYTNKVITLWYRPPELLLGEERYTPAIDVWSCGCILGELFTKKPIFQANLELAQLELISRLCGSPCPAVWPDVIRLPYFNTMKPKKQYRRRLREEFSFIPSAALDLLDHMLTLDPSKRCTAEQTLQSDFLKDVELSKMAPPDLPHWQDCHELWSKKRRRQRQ
T3 sequence (O75909 1-267 partner): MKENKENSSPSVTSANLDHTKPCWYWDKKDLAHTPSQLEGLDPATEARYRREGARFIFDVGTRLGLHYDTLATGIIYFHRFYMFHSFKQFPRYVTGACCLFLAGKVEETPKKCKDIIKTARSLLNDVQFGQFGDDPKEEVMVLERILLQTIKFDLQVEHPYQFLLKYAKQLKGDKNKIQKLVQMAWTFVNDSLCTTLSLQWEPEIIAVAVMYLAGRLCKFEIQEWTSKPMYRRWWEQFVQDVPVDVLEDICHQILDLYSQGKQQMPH
T3 sequence (Q16531 whole entry): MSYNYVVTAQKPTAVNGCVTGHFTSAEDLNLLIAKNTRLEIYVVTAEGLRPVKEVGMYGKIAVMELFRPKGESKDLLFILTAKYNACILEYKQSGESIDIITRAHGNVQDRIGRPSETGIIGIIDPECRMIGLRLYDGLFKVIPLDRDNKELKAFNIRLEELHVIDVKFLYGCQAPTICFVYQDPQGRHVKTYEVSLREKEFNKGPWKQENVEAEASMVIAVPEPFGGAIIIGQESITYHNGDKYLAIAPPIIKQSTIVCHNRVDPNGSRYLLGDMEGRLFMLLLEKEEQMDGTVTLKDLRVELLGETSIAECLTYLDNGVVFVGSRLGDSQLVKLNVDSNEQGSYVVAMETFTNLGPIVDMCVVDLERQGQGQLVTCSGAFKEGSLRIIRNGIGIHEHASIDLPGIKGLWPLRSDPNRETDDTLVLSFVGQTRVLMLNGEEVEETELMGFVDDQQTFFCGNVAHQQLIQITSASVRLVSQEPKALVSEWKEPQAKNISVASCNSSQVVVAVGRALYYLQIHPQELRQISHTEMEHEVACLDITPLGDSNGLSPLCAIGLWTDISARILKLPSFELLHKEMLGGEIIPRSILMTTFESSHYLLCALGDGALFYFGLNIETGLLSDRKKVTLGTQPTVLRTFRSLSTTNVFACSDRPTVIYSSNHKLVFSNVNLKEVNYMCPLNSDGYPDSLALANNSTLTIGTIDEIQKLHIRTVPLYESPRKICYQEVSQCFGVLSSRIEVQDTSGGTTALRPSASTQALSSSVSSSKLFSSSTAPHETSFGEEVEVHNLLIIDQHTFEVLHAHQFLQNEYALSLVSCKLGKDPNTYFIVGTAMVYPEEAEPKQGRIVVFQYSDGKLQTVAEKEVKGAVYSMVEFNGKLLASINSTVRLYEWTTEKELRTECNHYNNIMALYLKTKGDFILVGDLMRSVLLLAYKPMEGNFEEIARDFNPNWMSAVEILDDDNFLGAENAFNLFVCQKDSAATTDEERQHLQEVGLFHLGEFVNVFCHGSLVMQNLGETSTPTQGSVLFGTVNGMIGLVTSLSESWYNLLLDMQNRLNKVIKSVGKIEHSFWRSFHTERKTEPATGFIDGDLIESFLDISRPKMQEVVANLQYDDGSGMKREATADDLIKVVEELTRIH
How it was run: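 Signal was the ratio of 520 nm to 490 nm fluorescence, measured after a 70 μs delay that reduced background.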

Chain of CDK12–cyclin K (Q9NYV4 713-1052): as the sequence (Q9NYV4 713-1052 K965R) above, with R253K counted along it
Chain of CDK12–cyclin K (O75909 1-267 partner limits assumed): as the sequence (O75909 1-267 partner) above

How did the IC50 (CDK12–cyclin K; Lanthascreen, average, Extended Data Fig. 8, read-out: CDK12 IC50) turn out when O=C(CCn1cnc2ccccc2c1=O)Nc1ccc(Br)cn1 [Z7] was run?
The IC50 was > 10000 nM.

What about the IC50 (CDK12–cyclin K; Supplementary Table 2, read-out: Lanthascreen IC50 [nM] CDK12) of the same compound?
The IC50 was > 10000 nM.

And the “Lanthascreen raw signal, sheet CDK12” value (CDK12–cyclin K; compound 1.02544 nM)?
Its value is 0.009993 and 0.009189.

What about the “Lanthascreen raw signal, sheet CDK12” value (CDK12–cyclin K; compound 3.15521 nM) of the same compound?
The value was 0.007678 and 0.01017.

And the “Lanthascreen raw signal, sheet CDK12” value (CDK12–cyclin K; compound 9.46563 nM)?
The value was 0.008332 and 0.008957.

And the “Lanthascreen raw signal, sheet CDK12” value (CDK12–cyclin K; compound 31.5521 nM)?
Its value is 0.009201 and 0.006925.

What about the “Lanthascreen raw signal, sheet CDK12” value (CDK12–cyclin K; compound 99.3891 nM) of the same compound?
Its value is 0.01004 and 0.007454.

And the “Lanthascreen raw signal, sheet CDK12” value (CDK12–cyclin K; compound 315.521 nM)?
Its value is 0.008681 and 0.00881.

What about the “Lanthascreen raw signal, sheet CDK12” value (CDK12–cyclin K; compound 3155.21 nM) of the same compound?
The value was 0.008543 and 0.006433.

What about the “Lanthascreen raw signal, sheet CDK12” value (CDK12–cyclin K; compound 10002 nM) of the same compound?
Its value is 0.006174 and 0.006044.

What about the IC50 (CDK9–cyclin T; Supplementary Table 2, read-out: Lanthascreen IC50 [nM] CDK9) of the same compound?
Its IC50 is 873 nM.

What about the “Lanthascreen TR-FRET signal (raw ratio), sheet CDK9” value (CDK9–cyclin T; compound 1.02544 nM) of the same compound?
Its value is 0.01205 and 0.01344.

What about the “Lanthascreen TR-FRET signal (raw ratio), sheet CDK9” value (CDK9–cyclin T; compound 3.15521 nM) of the same compound?
The value was 0.01275 and 0.01665.

What about the “Lanthascreen TR-FRET signal (raw ratio), sheet CDK9” value (CDK9–cyclin T; compound 9.46563 nM) of the same compound?
Its value is 0.01222 and 0.01758.

What about the “Lanthascreen TR-FRET signal (raw ratio), sheet CDK9” value (CDK9–cyclin T; compound 31.5521 nM) of the same compound?
Its value is 0.01391 and 0.02091.

And the “Lanthascreen TR-FRET signal (raw ratio), sheet CDK9” value (CDK9–cyclin T; compound 99.3891 nM)?
Its value is 0.01184 and 0.01953.

And the “Lanthascreen TR-FRET signal (raw ratio), sheet CDK9” value (CDK9–cyclin T; compound 315.521 nM)?
The value was 0.01137 and 0.01786.

What about the “Lanthascreen TR-FRET signal (raw ratio), sheet CDK9” value (CDK9–cyclin T; compound 3155.21 nM) of the same compound?
Its value is 0.003916 and 0.005427.

What about the “Lanthascreen TR-FRET signal (raw ratio), sheet CDK9” value (CDK9–cyclin T; compound 10002 nM) of the same compound?
The value was 0.004637 and 0.003497.

And the DC50 [1]?
The DC50 was > 10000 nM.

And the “Lanthascreen signal, sheet CDK2” value (CDK2–cyclin A; Compound 1.02544 nM)?
The value was 0.01007 and 0.009144.

And the “Lanthascreen signal, sheet CDK2” value (CDK2–cyclin A; Compound 3.15521 nM)?
The value was 0.0112 and 0.008273.

And the “Lanthascreen signal, sheet CDK2” value (CDK2–cyclin A; Compound 9.46563 nM)?
The value was 0.0109 and 0.01003.

And the “Lanthascreen signal, sheet CDK2” value (CDK2–cyclin A; Compound 31.5521 nM)?
Its value is 0.009356 and 0.009077.

And the “Lanthascreen signal, sheet CDK2” value (CDK2–cyclin A; Compound 99.3891 nM)?
The value was 0.01058 and 0.01018.

And the “Lanthascreen signal, sheet CDK2” value (CDK2–cyclin A; Compound 315.521 nM)?
The value was 0.009946 and 0.008466.

And the “Lanthascreen signal, sheet CDK2” value (CDK2–cyclin A; Compound 3155.21 nM)?
Its value is 0.009117 and 0.008683.

What about the “Lanthascreen signal, sheet CDK2” value (CDK2–cyclin A; Compound 10002 nM) of the same compound?
Its value is 0.008076 and 0.006678.

And the IC50 (CDK2–cyclin A; Lanthascreen, average, Extended Data Fig. 8, read-out: CDK2 IC50)?
Its IC50 is > 10000 nM.

And the IC50 (CDK2–cyclin A; Supplementary Table 2, read-out: Lanthascreen IC50 [nM] CDK2)?
The IC50 was > 10000 nM.

And the EC50 (HEK293T cells; Homo sapiens, HEK-293T, HEK293T viability, 72 h, compound alone, read-out: Cellular assays EC50)?
Its EC50 is > 10000 nM.

What about the Toxicity rescue (HEK293T cells; MLN4924-mediated cytotoxicity rescue, 10 µM used where n.d.) of the same compound?
Its Toxicity rescue is 0%.

What about the EC50 (CDK12–cyclin K and DDB1; Supplementary Table 2, read-out: TR-FRET EC50 TR-FRET) of the same compound?
Its EC50 is 303 nM.

What about the TR-FRET signal (CDK12–cyclin K and DDB1; compound concentration 0.468 nM) of the same compound?
The TR-FRET signal was 0.3146 and 0.2937.

What about the TR-FRET signal (CDK12–cyclin K and DDB1; compound concentration 2.16 nM) of the same compound?
The TR-FRET signal was 0.327 and 0.3142.

And the TR-FRET signal (CDK12–cyclin K and DDB1; compound concentration 3.6 nM)?
The TR-FRET signal was 0.3516 and 0.3492.

And the TR-FRET signal (CDK12–cyclin K and DDB1; compound concentration 4.68 nM)?
The TR-FRET signal was 0.1778 and 0.177.

What about the TR-FRET signal (CDK12–cyclin K and DDB1; compound concentration 7.92001 nM) of the same compound?
Its TR-FRET signal is 0.4103 and 0.4025.

What about the TR-FRET signal (CDK12–cyclin K and DDB1; compound concentration 15.84 nM) of the same compound?
Its TR-FRET signal is 0.4987 and 0.4962.

What about the TR-FRET signal (CDK12–cyclin K and DDB1; compound concentration 21.6 nM) of the same compound?
The TR-FRET signal was 0.3031 and 0.3042.

What about the TR-FRET signal (CDK12–cyclin K and DDB1; compound concentration 30.96 nM) of the same compound?
The TR-FRET signal was 0.6587 and 0.6967.

What about the TR-FRET signal (CDK12–cyclin K and DDB1; compound concentration 36 nM) of the same compound?
Its TR-FRET signal is 0.5003 and 0.5187.

And the TR-FRET signal (CDK12–cyclin K and DDB1; compound concentration 62.6401 nM)?
The TR-FRET signal was 0.9444 and 1.024.

What about the TR-FRET signal (CDK12–cyclin K and DDB1; compound concentration 79.2001 nM) of the same compound?
Its TR-FRET signal is 0.8582 and 0.8909.

And the TR-FRET signal (CDK12–cyclin K and DDB1; compound concentration 125.28 nM)?
Its TR-FRET signal is 1.324 and 1.444.

And the TR-FRET signal (CDK12–cyclin K and DDB1; compound concentration 158.4 nM)?
Its TR-FRET signal is 1.305 and 1.368.

What about the TR-FRET signal (CDK12–cyclin K and DDB1; compound concentration 244.8 nM) of the same compound?
Its TR-FRET signal is 1.9166 and 1.983.

And the TR-FRET signal (CDK12–cyclin K and DDB1; compound concentration 309.6 nM)?
The TR-FRET signal was 1.882 and 1.916.

And the TR-FRET signal (CDK12–cyclin K and DDB1; compound concentration 626.401 nM)?
Its TR-FRET signal is 2.43 and 2.4997.

What about the TR-FRET signal (CDK12–cyclin K and DDB1; compound concentration 993.601 nM) of the same compound?
The TR-FRET signal was 2.9527 and 2.952.

What about the TR-FRET signal (CDK12–cyclin K and DDB1; compound concentration 1252.8 nM) of the same compound?
The TR-FRET signal was 2.93 and 3.011.

And the TR-FRET signal (CDK12–cyclin K and DDB1; compound concentration 2001.6 nM)?
The TR-FRET signal was 3.382 and 3.238.

And the TR-FRET signal (CDK12–cyclin K and DDB1; compound concentration 2448 nM)?
The TR-FRET signal was 3.265 and 3.3741.

What about the TR-FRET signal (CDK12–cyclin K and DDB1; compound concentration 9936.01 nM) of the same compound?
Its TR-FRET signal is 3.59 and 3.595.

And the TR-FRET signal (CDK12–cyclin K and DDB1; compound concentration 20016 nM)?
Its TR-FRET signal is 3.713 and 3.698.

What about the EC50 (CDK12–cyclin K and DDB1; in vitro complex formation, 50 nM CDK12–cyclin K, 100 nM DDB1, text and figures, read-out: TR-FRET EC50) of the same compound?
The EC50 was 303 ± 16 nM.

What about the EC50 (CDK12–cyclin K and DDB1; sheet MOESM7, read-out: log TR-FRET EC50 (converted)) of the same compound?
Its EC50 is 303 nM.
